# System: carrageenin-induced paw edema
# Experiment: Anti-inflammatory activity: inhibition of carrageenin-induced paw edema in rats
# Assay type: in vivo, rat (male, S.D. strain)
# Details: Rattus norvegicus, po, read-out: Inhibition percent of edema; for inhibition in vivo at 100 mg/kg: 100 mg/kg p.o.; for inhibition in vivo at 50 mg/kg: 50 mg/kg p.o.; for inhibition in vivo at 25 mg/kg: 25 mg/kg p.o.
# Procedure: (1) Anti-inflammatory activity: inhibition of carrageenin-induced paw edema in rats The compound was tested for the above activity according to the method of C.A. Winter et al. [Proc. Soc. […] One hour after the test compound was orally given to the animal, 0.1 ml of 1% carrageenin solution was subcutaneously injected into the right footpad. The paw volume was measured 3 hours thereafter, and the resulting increase in the volume was calculated based on the volume before the injection of carrageenin solution. The percent inhibition was determined in comparison with the increase in the control group.
# [1] = 1 h before carrageenin, paw volume 3 h after, vs control
Compound,inhibition in vivo at 100 mg/kg [1],other results
"CC(C)(C)c1cc(Nc2ccc(Cl)nn2)cc(C(C)(C)C)c1O [Compound 26, 2,6-di-tert-butyl-4-[(6-chloro-3-pyridazinyl)amino]phenol]",27%,–
"CCOc1ccc(Nc2cc(C(C)(C)C)c(O)c(C(C)(C)C)c2)nn1 [Compound 28, 2,6-di-tert-butyl-4-[(6-ethoxy-3-pyridazinyl)amino]phenol]",33%,–
"CC(C)(C)c1cc(Nn2cnnc2)cc(C(C)(C)C)c1O [Compound 55, 2,6-di-tert-butyl-4-[(1,2,4-triazol-4-yl)amino]phenol]",23%,–
"CC(C)(C)c1cc(Nc2cc(Cl)nnc2Cl)cc(C(C)(C)C)c1O [Compound 27, 2,6-di-tert-butyl-4-[(3,6-dichloro-4-pyridazinyl)amino]pheonl]",33%,–
"CC(C)(C)c1cc(Nc2nccnn2)cc(C(C)(C)C)c1O [Compound 59, 2,6-di-tert-butyl-4-[(1,2,4-triazin-3-yl)amino]phenol]",–,inhibition in vivo at 50 mg/kg [1]: 37%
"CC(C)(C)c1cc(Nc2ncco2)cc(C(C)(C)C)c1O [Compound 49, 2,6-di-tert-butyl-4-[(2-oxazolyl)amino]phenol]",41%,–
Cc1cc(Nc2cc(C(C)(C)C)c(O)c(C(C)(C)C)c2)no1 [Compound 50],–,inhibition in vivo at 50 mg/kg [1]: 12%
"CC(C)c1cc(Nc2cnccn2)cc(C(C)(C)C)c1O [Compound 4, 2-isopropyl-6-tert-butyl-4-pyrazinylaminophenol]",39%,–
"Cn1nccc1Nc1cc(C(C)(C)C)c(O)c(C(C)(C)C)c1 [Compound 39, 2,6-di-tert-butyl-4-[(2-methyl-3-pyrazolyl)amino]phenol]",46%,–
"CC(C)(C)c1cc(Nc2cc[nH]n2)cc(C(C)(C)C)c1O [Compound 34, 2,6-di-tert-butyl-4-(3-pyrazolylamino)phenol]",65%,–
"CC(C)(C)c1cc(Nc2ccc(CO)nn2)cc(C(C)(C)C)c1O [Compound 33, 2,6-di-tert-butyl-4-[(6-hydroxymethyl-3-pyridazinyl)amino]phenol]",46%,–
CC(C)(C)c1cc(Nc2cncnc2)cc(C(C)(C)C)c1O [Compound 15],16%,–
"CC(C)(C)c1cc(Nc2c[nH]nn2)cc(C(C)(C)C)c1O [Compound 51, 2,6-di-tert-butyl-4-[(1,2,3-triazol-4-yl)amino]phenol]",42%,–
"Cc1ccc(Nc2cc(C(C)(C)C)c(O)c(C(C)(C)C)c2)nn1 [Compound 17, 2,6-di-tert-butyl-4-[(6-methyl-3-pyridazinyl)amino]phenol]",–,inhibition in vivo at 25 mg/kg [1]: 36%
"COc1ccc2c(c1)c(CC(=O)O)c(C)n2C(=O)c1ccc(Cl)cc1 [Indomethacin, reference compound]",–,inhibition in vivo at 5 mg/kg (3 h): 36%
"CC(C)(C)c1cc(Nc2ccnnc2)cc(C(C)(C)C)c1O [Compound 12, 2,6-di-tert-butyl-4-[(4-pyridazinyl)amino]phenol]",–,inhibition in vivo at 25 mg/kg [1]: 29%

Compound,inhibition in vivo at 100 mg/kg [1],other results
"CC(C)(C)c1cc(Nc2nc(-c3ccccc3)ns2)cc(C(C)(C)C)c1O [Compound 56, 2,6-di-tert-butyl-4-[(3-phenyl-1,2,4-thiadiazol-5-yl)amino]phenol]",13%,–
CC(C)(C)c1cc(Nc2nnc[nH]2)cc(C(C)(C)C)c1O [Compound 54],20%,–
Cc1cnc(Nc2cc(C(C)(C)C)c(O)c(C(C)(C)C)c2)cn1 [Compound 16],10%,–
"CC(C)(C)c1cc(Nc2cncc[n+]2[O-])cc(C(C)(C)C)c1O [Compound 64, 2-N-(3,5-di-tert-butyl-4-hydroxyphenyl)aminopyrazine-1-oxide]",–,inhibition in vivo at 25 mg/kg [1]: 31%
CC(C)(C)c1cc(Nc2cncc(Cl)n2)cc(C(C)(C)C)c1O [Compound 25],15%,–
"CC(C)(C)c1cc(Nc2cncnc2N)cc(C(C)(C)C)c1O [Compound 22, 2,6-di-tert-butyl-4-[(4-amino-5-pyrimidinyl)amino]phenol]",32%,–
"Cc1nnc(Nc2cc(C(C)(C)C)c(O)c(C(C)(C)C)c2)s1 [Compound 58, 2,6-di-tert-butyl-4-[(5-methyl-1,3,4-thiadiazol-2-yl)amino]pheonl]",30%,–
"CC(C)(C)c1cc(Nc2cccnn2)cc(C(C)(C)C)c1O [Compound 11, 2,6-di-tert-butyl-4-[(3-pyridazinyl)amino]phenol]",62%,–
"COc1ccc(Nc2cc(C(C)(C)C)c(O)c(C(C)(C)C)c2)nn1 [Compound 24, 2,6-di-tert-butyl-4-[(6-methoxy-3-pyridazinyl)amino]phenol]",–,inhibition in vivo at 25 mg/kg [1]: 31%
"Cc1sccc1Nc1cc(C(C)(C)C)c(O)c(C(C)(C)C)c1 [Compound 61, 2,6-di-tert-butyl-4-[(2-methyl-3-thienyl)amino]phenol]",–,inhibition in vivo at 50 mg/kg [1]: 25%
"CC(C)(C)c1cc(Nc2cnccn2)cc(C(C)(C)C)c1O [Compound 1, 2,6-di-tert-butyl-4-pyrazinylaminophenol]",–,inhibition in vivo at 50 mg/kg [1]: 37%
"CC(C)(C)c1cc(Nc2ccncn2)cc(C(C)(C)C)c1O [Compound 14, 2,6-di-tert-butyl-4-[(4-pyrimidinyl)amino]phenol]",–,inhibition in vivo at 50 mg/kg [1]: 30%
CC(C)(C)c1cc(Nc2ncc[nH]2)cc(C(C)(C)C)c1O [Compound 48],–,inhibition in vivo at 25 mg/kg [1]: 63%
CC(C)c1cc(Nc2cccnn2)cc(C(C)(C)C)c1O [Compound 10],–,inhibition in vivo at 25 mg/kg [1]: 35%
"CC(C)(C)c1cc(Nc2ncccn2)cc(C(C)(C)C)c1O [Compound 13, 2,6-di-tert-butyl-4-[(2-pyrimidinyl)amino]phenol]",–,"inhibition in vivo at 10 mg/kg (10 mg/kg p.o., 1 h before carrageenin, paw volume 3 h after, vs control): 41%"
"Cc1ccnc(Nc2cc(C(C)(C)C)c(O)c(C(C)(C)C)c2)n1 [Compound 18, 2,6-di-tert-butyl-4-[(4-methyl-2-pyrimidinyl)amino]phenol]",–,inhibition in vivo at 50 mg/kg [1]: 36%

# — patent publication US4868183A, “N-pyrazinyl substituted P-aminophenols” (Otsuka Pharmaceutical Factory, Inc., priority 1986, dated 1989)
